Measurements from patent US9316631B1, “ER-stress inducing compounds and methods of use thereof” (Whitehead Institute for Biomedical Research, priority 2012, dated 2016).
Like-named read-outs stand apart in the source and are kept apart here.

Legend:
[1] = tested on: IDMS cells (HMLE_shEcad, HMLE_Twist) versus control HMLE_shGFP cells; assay: Dose-response cell survival, ATP-based luminescence assay, HMLE cells; set-up: species or system human; conditions: for killing of IDMS cells relative to control HMLE cells: 3 days, FIG. 3B, 3C
Protocol: (B) Dose response curves of HMLE_shGFP, HMLE_shEcad and HMLE_Twist cells treated with various concentrations of Cmp302, Cmp308 and Dev4, respectively for 3 days. Cell survival was determined using an ATP-based luminescence assay.
(B) Dose-response curves of HMLE_shGFP, HMLE_shEcad and HMLE_Twist cells treated with various concentrations of Thapsigargin, DTT and A23187 for 3 days. Cell survival was determined using an ATP-based luminescence assay.
(B) Dose-response curves indicating viability of Dev2-treated cell lines
(§1) Cells (3000/well) were plated in 100 μl per well in 96-well plates. One day (24 hr) after seeding, compounds were added in 8 different doses at three replicates per dose for each cell line. Cell viability was measured after 72 hr with the CellTiter-Glo […] Assay (Promega). Paclitaxel, Doxorubicin, Tunicamycin, Thapsigargin, A23187 and DTT were purchased from Sigma Aldrich. Cmp302 and Cmp308 were purchased from Biointerscreen.

[2] = tested on: UPR signaling in HMLER_shGFP and HMLER_Twist cells; assay: UPR signaling (Western blot, XBP1 RT-PCR, ATF6 reporter, qPCR); format: cell-based, human
Protocol: (A) Expression of UPR pathway components in HMLER_shGFP and HMLER_Twist cells that were treated with Dev2, Cmp302, Dev4 or DMSO solvent for 6 h. Western blot analysis for phospho-eIF2α, total eIF2α, CHOP and β-Tubulin. RT-PCR analysis of XBP1 and XBP1 splice variant and GAPDH transcripts.
(D) Western blot analysis of HMLER_shGFP and HMLER_Twist cells treated with vehicle (DMSO), DTT or A23187 for 4 h and probed for p-eIF2α, total eIF2α, CHOP and β-Tubulin (loading control). RT-PCR analysis of XBP1 and XBP1 splice variant and GAPDH transcripts.
(E) Western blot analysis of HMLER_shGFP and HMLER_Twist cells treated with vehicle (DMSO), Tunicamycin or Thapsigargin for 4 h and probed for p-eIF2α, total eIF2α, CHOP and β-Tubulin (loading control). RT-PCR analysis of XBP1 and XBP1 splice variant and GAPDH transcripts.
Reporter activity for each cell line was normalized relative to DMSO treatment.
BIP expression was normalized relative to GAPDH for each sample.
(C) ATF6 activation of HMLER_shGFP and HMLER_Twist cells in response to Tunicamycin, Thapsigargin, DTT and A23187 were measured by ATF6 reporter assay. Reporter activity for each cell line was normalized relative to DMSO treatment.
(D) qPCR analysis for BIP expression in HMLER_shGFP and HMLER_Twist cells treated with Thapsigargin and DTT. BIP expression was normalized relative to GAPDH for each sample.
(E) qPCR analysis for expression of GADD34 in HMLER_shGFP and HMLER_Twist cells treated with Thapsigargin and DTT. GADD34 expression was normalized relative to GAPDH for each sample.
Western blotting was performed as previously described (Gupta et al., 2009). Antibodies used for immunoblotting were as follows: E-cadherin (BD Transduction), Fibronectin (Abcam), Actin, Cytokeratin 8/18, PERK, eIF2α, peIF2α, CHOP, Caspase-3 and Bip (Cell Signal Technology).
p5xATF6-GL3 and hRluc constructs were obtained from Addgene (plasmids 11976 and 24348, provided by Drs. Ron Prywes and Liqun Luo, resp.). 24 hours after co-transfection of 0.3 μg p5xATF6-GL3 and 0.05 μg hRluc plasmids, cells were treated with indicated compounds for another 6 hours, and ATF6 activity was measured by a dual luciferase assay (Promega).

[3] = tested on: protein secretion of HMLE cells; assay: 35S-methionine/cysteine labeling of secreted proteins, HMLE cells; format: cell-based, human; conditions: control experiment; data not shown
Protocol: (F) Autoradiograph showing ^35S-methionine/cysteine-labeled secreted proteins in IDMS (HMLE_shEcad, HMLE_Twist) and control (HMLE_shGFP) cells. Secreted proteins were harvested at the indicated time points. Quantification of signal in each lane is provided in arbitrary units. The indicated proteins were identified by mass-spectrometry.
(§2) Equal numbers of cells were cultured in the presence of ^35S-methionine/cysteine in medium with reduced methionine/cysteine content and minimal serum. At the indicated timepoints, aliquots of medium were extracted for analysis. Medium was centrifuged at 800×g for 2 min to pellet any whole cell contaminants. Equal volume of medium was reduced in loading buffer, separated by SDS-PAGE and analyzed by autoradiography.
To determine whether overall protein secretion was elevated in IDMS cells, total protein synthesis and secretion was measured using ^35S-methionine/cysteine. Labeled proteins secreted by cells into the culture medium (“secretome”) were visualized by gel electrophoresis and autoradiography. After three hours of ^35S-methionine/cysteine labeling, we observed a 9.6-fold and 13.7-fold increase in the secretome of IDMS cells (HMLE_shEcad and HMLE_Twist, resp.) relative to the control epithelial cells (FIG. 4F).

[4] = tested on: HMLER_shGFP and HMLER_Twist cells; assay: Viability with thapsigargin in presence or absence of salubrinal; format: cell-based, human; conditions: 10 μM salubrinal, 3 days; FIG. 6F
Protocol: (F) Relative viability of HMLER_shGFP and HMLER_Twist cells treated with increasing doses of thapsigargin in the presence or absence of 10 μM salubrinal for 3 days. Cell viability was assayed with an ATP-based luminescence assay.
as §1

[5] = tested on: HMLE_Twist_GFP / HMLE_shEcad_GFP cells mixed 1:1 with HMLE_shGFP_dsRed cells; assay: Co-culture of GFP-labeled IDMS cells with dsRed-labeled control epithelial cells; format: cell-based, human; conditions: 1:1 co-culture, 5 days treatment; FIGS. 1D and E
Protocol: (D) Representative fluorescence images of HMLE_shGFP_dsRed and HMLE_Twist_GFP cells were mixed in a 1:1 ratio and treated with 5 nM Paclitaxel, 2 μM Cmp302, 2 μM Cmp308 or DMSO control. Images after 5 days of treatment are shown. Scale bar: 50 μm
(E) Quantification of HMLE_shGFP_dsRed and HMLE_shEcad_GFP cells that were mixed in a 1:1 ratio and treated with Doxorubicin or Dev4. Following a 5 day treatment, the percentages of dsRed-positive and GFP-positive cells were quantified by FACS.
Even though Cmp302 and Cmp308 were selective for IDMS cells when cultured alone, tumors are comprised of heterogeneous populations of cells that could affect the sensitivity or selectivity of the applied chemicals. Therefore GFP-labeled IDMS cells were co-cultured with dsRed-labeled control epithelial cells and then applied Cmp302 and Cmp308.

[6] = tested on: MDA-MB-157 cells (CD44hiCD24lo and CD44loCD24hi fractions); assay: Flow cytometry of CD44/CD24 fractions of treated MDA-MB-157 cells; format: cell-based, human; conditions: suspension, 36 h; FIG. 1J
Protocol: (J) MDA-MB-157 cells were treated with Cmp308, paclitaxel or DMSO solvent in suspension for 36 h and analyzed by flow cytometry for CD44 and CD24 expression. The percentage of CD44^hiCD24^lo and CD44^loCD24^hi cells in were quantified and normalized relative to DMSO controls.
FACS analysis was performed according to the manufacturer's protocol (BD Biosciences). Reagents used in FACS were as follows: APC-conjugated anti-CD44 antibody (clone G44-26), PE-conjugated anti-CD24 antibody (clone ML5), and propidium iodide (5 μg/ml) (BD Bioscience).

MDA-MB-157 cells = assay: Dose-response cell survival of MDA-MB-157 cells in suspension versus adherent culture; format: cell-based, human; conditions: 3 days; FIG. 1I
Protocol: (I) Dose-response curves of MDA-MB-157 cells cultured in adherent or suspension conditions and treated with 8 doses of paclitaxel, Cmp302 or Cmp308 for 3 days. Cell survival was determined using an ATP-based luminescence assay.
as §1
Next, it was determined whether the preferential toxicity of these compounds was unique to the oncogenic modifications of the HMLE breast epithelial cell system. Accordingly, a model was developed in which human breast carcinoma cells progressed towards the IDMS state in the absence of genetic modifications by altering their extracellular contextual signals. […] However, this line adopts an IDMS state when detached from its substratum and cultured in suspension (FIG. 1F). […] This morphologic alteration was accompanied by upregulation of mesenchymal markers (fibronectin) and downregulation of epithelial proteins (cytokeratin 8/18 and E-cadherin) (FIG. 1G). […]

SUM159 cancer cells [7] = assay: Transwell migration of pretreated SUM159 cells; format: cell-based, human; conditions: 5 h migration
Protocol: (B) Representative images of crystal violet staining of SUM159 cells following transwell migration assay. Transwell migration assay was performed on SUM159 cancer cells treated as in (A). Cells that have migrated for 5 h following seeding into 8 μm pore inserts were visualize and quantified. Scale bar: 50 μm
(§3) To determine whether chemical ER perturbants could abrogate the malignancy of IDMS cells, SUM159 cancer cells (derived from a primary anaplastic Basal-B breast carcinoma) were treated with tunicamycin, thapsigargin or paclitaxel at their respective IC75 doses. Cells were then allowed to recover in the absence of treatment prior to subjecting them to functional assays for IDMS-related phenotypes.

SUM159 cells = assay: Dose-response of pretreated SUM159 cells to paclitaxel or doxorubicin; format: cell-based, human; conditions: pretreated SUM159, then paclitaxel or doxorubicin 3 days; FIG. 7D
Protocol: (D) Dose-response curves of SUM159 cells pre-treated as in (C) and then treated with 8 doses of paclitaxel or doxorubicin for 3 days. Cell survival was determined using an ATP-based luminescence assay.
as §1

SUM159 cancer cells [8] = assay: Tumorsphere formation of pretreated SUM159 cells; format: cell-based, human; conditions: pretreatment 3 days (1 μg/ml Tunicamycin, 10 nM Thapsigargin), 3 days recovery
Protocol: (A) Representative brightfield images and quantification of tumorsphere formation of SUM159 cancer cells treated with 5 nM Paclitaxel, 1 μg/ml Tunicamycin, 10 nM Thapsigargin, or DMSO vehicle for 3 days followed by another 3 days of recovery in regular medium. Scale bar: 50 μm
Mammosphere formation assays were performed as described (Dontu et al., 2003), but with 0.6% methylcellulose (Stem Cell Technologies). Five thousand cells were plated per well in low-adherence 24-well plates and cultured for 5-8 days prior to being counted and photographed.
as §3

[9] = tested on: protein secretion of SUM159 cells; assay: 35S-methionine/cysteine labeling of secreted proteins, pretreated SUM159 cells; format: cell-based, human; conditions: pretreatment 3 days, recovery 3 days
Protocol: (B) Autoradiograph showing ^35S-methionine/cysteine-labeled secreted proteins in SUM159 cells that were pretreated with 1 μg/ml Tunicamycin, 10 nM Thapsigargin, 0.1 μM A23187 or DMSO vehicle for 3 days and allowed to recover in the absence of chemical for 3 days prior to the ^35S-methionine/cysteine labeling.
as §2

[10] = 6 h treatment (Cmp302, Dev4, Dev2) or 4 h (DTT, A23187, tunicamycin, thapsigargin), IDMS versus non-IDMS cells

`O[C@H](CS)[C@H](O)CS` (racemic) [DTT, dithiothreitol] was tested, and the “killing of IDMS cells relative to control HMLE cells” value [1] was “selective lethality” and the “UPR signaling (XBP1 splicing, eIF2α phosphorylation, ATF6 activation)” value (from here on “UPR signaling”) [2, 10] was “selectively induced”.

`CNc1ccc2oc(C[C@H]3O[C@@]4(CC[C@H]3C)O[C@H]([C@H](C)C(=O)c3ccc[nH]3)[C@H](C)C[C@H]4C)nc2c1C(=O)O` [A23187] was tested, and the “killing of IDMS cells relative to control HMLE cells” value [1] was “selective lethality” and the “UPR signaling” value [2] was “selectively induced”.

With `C[C@H]1CCC/C=C/[C@@H]2C[C@H](O)C[C@H]2[C@H](O)/C=C/C(=O)O1` [Brefeldin-A, Brefeldin A] the protein secretion [3] was “completely abolished protein secretion”.

With `O=C(/C=C/c1ccccc1)NC(NC(=S)Nc1cccc2cccnc12)C(Cl)(Cl)Cl` (centres unmarked) [Salubrinal, salubrinal] the “sensitization to thapsigargin treatment” value [4] was “further sensitized HMLER-Twist IDMS, but not control cells”.

In the case of `COc1cccc2c1C(=O)c1c(O)c3c(c(O)c1C2=O)C[C@@](O)(C(=O)CO)C[C@@H]3O[C@H]1C[C@H](N)[C@H](O)[C@H](C)O1` [doxorubicin], the “effect on IDMS cells in mixed populations” value [5] is reported as “selective expansion of IDMS cells”.

For `CC(=O)O[C@H]1C(=O)[C@@]2(C)[C@H]([C@H](OC(=O)c3ccccc3)[C@]3(O)C[C@H](OC(=O)[C@H](O)[C@@H](NC(=O)c4ccccc4)c4ccccc4)C(C)=C1C3(C)C)[C@]1(OC(C)=O)CO[C@@H]1C[C@@H]2O` [paclitaxel], the “preferential toxicity towards CD44hiCD24lo versus CD44loCD24hi fraction” value [6] was “did not exhibit this preferential toxicity”, the “effect on IDMS cells in mixed populations” value [5] was “selective expansion of IDMS cells” and the “toxicity towards IDMS MDA-MB-157 cells in suspension relative to non-IDMS cells in adherent conditions” value (MDA-MB-157 cells) was “decreased toxicity”.

For `C/C=C(/C)C(=O)O[C@H]1C(C)=C2[C@H]([C@@H]1OC(=O)CCCCCCC)[C@@](C)(OC(C)=O)C[C@H](OC(=O)CCC)[C@@]1(O)[C@H]2OC(=O)[C@@]1(C)O` [thapsigargin], the “migratory ability relative to paclitaxel-pretreated cells” value (SUM159 cancer cells [7]) was “strongly impaired”, the “killing of IDMS cells relative to control HMLE cells” value [1] was “selective lethality” and the “sensitization of pretreated cells to chemotherapy” value (SUM159 cells) was “sensitized SUM159 cells to paclitaxel and doxorubicin”. For the same molecule, the “tumorsphere-forming ability relative to paclitaxel- or DMSO-treated cells” value (SUM159 cancer cells [8]) was “significantly reduced”, the “protein secretion relative to paclitaxel- and DMSO-treated cells” value [9] was “strongly inhibited” and the “UPR signaling” value [2, 10] was “selectively induced”.

With tunicamycin the “migratory ability relative to paclitaxel-pretreated cells” value (SUM159 cancer cells [7]) was “strongly impaired”, the “IC50 (toxicity)” value ([1]; both IDMS and control HMLE cells, data not shown) was < 10^−10 g/ml and the “sensitization of pretreated cells to chemotherapy” value (SUM159 cells) was “sensitized SUM159 cells to paclitaxel and doxorubicin”. For the same molecule, the “tumorsphere-forming ability relative to paclitaxel- or DMSO-treated cells” value (SUM159 cancer cells [8]) was “significantly reduced”, the “protein secretion relative to paclitaxel- and DMSO-treated cells” value [9] was “strongly inhibited” and the “UPR signaling” value [2, 10] was “more readily induced in IDMS cells”. The “dose required for UPR induction relative to toxic dose” value ([2]; IDMS cells, FIG. 3E) was 100 fold.
